From ChEMBL document CHEMBL4649991
Values joined by “and” are separate entries in the source; they are usually repeats but may differ in a detail not shown here. Equal values may be shown once.

Assays:
[1] = molecular target: Bromodomain adjacent to zinc finger domain protein 1A (Homo sapiens) (UniProt Q9NRL2); conditions: Compound concentration 10.0 uM, Protein concentration 2.0 uM
[2] = molecular target: Nucleosome-remodeling factor subunit BPTF (Homo sapiens) (UniProt Q12830); conditions: Compound concentration 10.0 uM, Protein concentration 2.0 uM
[3] = molecular target: Bromodomain-containing protein 4 (Homo sapiens) (UniProt O60885); assay: Alphascreen assay. Domain start/stop: N44-E168; conditions: Compound concentration 25.0 uM, Protein concentration 6.25 uM
[4] = molecular target: Bromodomain adjacent to zinc finger domain protein 2B (Homo sapiens) (UniProt Q9UIF8); conditions: Compound concentration 10.0 uM, Protein concentration 2.0 uM
[5] = molecular target: Bromodomain-containing protein 9 (Homo sapiens) (UniProt Q9H8M2); assay: Alphascreen assay. Domain start/stop: L14-Q143; conditions: Compound concentration 4.0 uM, Protein concentration 5.0 uM
Bromodomain-containing protein 9 (Homo sapiens), sequence (Q9H8M2 whole entry): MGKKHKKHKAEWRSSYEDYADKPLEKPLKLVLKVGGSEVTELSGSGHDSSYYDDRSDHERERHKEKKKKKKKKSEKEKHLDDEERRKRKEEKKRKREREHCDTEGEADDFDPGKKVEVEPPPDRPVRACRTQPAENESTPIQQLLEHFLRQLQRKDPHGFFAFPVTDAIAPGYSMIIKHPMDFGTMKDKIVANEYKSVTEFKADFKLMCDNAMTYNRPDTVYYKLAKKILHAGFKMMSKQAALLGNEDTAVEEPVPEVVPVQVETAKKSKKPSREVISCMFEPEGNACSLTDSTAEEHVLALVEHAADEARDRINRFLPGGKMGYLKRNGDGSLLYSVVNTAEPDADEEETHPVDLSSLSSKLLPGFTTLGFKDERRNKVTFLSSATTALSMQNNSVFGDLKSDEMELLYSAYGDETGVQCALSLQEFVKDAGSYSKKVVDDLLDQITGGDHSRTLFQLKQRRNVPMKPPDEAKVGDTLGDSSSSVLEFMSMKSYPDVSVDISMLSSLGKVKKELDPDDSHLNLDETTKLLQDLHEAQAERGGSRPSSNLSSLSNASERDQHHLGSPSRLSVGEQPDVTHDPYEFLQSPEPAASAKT

[6] = molecular target: Bromodomain-containing protein 3 (Homo sapiens) (UniProt Q15059); conditions: Compound concentration 10.0 uM, Protein concentration 2.0 uM
[7] = molecular target: Chromatin remodeling regulator CECR2 (Homo sapiens) (UniProt Q9BXF3); conditions: Compound concentration 4.0 uM, Protein concentration 19.0 uM
Chromatin remodeling regulator CECR2 (Homo sapiens), sequence (Q9BXF3 whole entry, looked up): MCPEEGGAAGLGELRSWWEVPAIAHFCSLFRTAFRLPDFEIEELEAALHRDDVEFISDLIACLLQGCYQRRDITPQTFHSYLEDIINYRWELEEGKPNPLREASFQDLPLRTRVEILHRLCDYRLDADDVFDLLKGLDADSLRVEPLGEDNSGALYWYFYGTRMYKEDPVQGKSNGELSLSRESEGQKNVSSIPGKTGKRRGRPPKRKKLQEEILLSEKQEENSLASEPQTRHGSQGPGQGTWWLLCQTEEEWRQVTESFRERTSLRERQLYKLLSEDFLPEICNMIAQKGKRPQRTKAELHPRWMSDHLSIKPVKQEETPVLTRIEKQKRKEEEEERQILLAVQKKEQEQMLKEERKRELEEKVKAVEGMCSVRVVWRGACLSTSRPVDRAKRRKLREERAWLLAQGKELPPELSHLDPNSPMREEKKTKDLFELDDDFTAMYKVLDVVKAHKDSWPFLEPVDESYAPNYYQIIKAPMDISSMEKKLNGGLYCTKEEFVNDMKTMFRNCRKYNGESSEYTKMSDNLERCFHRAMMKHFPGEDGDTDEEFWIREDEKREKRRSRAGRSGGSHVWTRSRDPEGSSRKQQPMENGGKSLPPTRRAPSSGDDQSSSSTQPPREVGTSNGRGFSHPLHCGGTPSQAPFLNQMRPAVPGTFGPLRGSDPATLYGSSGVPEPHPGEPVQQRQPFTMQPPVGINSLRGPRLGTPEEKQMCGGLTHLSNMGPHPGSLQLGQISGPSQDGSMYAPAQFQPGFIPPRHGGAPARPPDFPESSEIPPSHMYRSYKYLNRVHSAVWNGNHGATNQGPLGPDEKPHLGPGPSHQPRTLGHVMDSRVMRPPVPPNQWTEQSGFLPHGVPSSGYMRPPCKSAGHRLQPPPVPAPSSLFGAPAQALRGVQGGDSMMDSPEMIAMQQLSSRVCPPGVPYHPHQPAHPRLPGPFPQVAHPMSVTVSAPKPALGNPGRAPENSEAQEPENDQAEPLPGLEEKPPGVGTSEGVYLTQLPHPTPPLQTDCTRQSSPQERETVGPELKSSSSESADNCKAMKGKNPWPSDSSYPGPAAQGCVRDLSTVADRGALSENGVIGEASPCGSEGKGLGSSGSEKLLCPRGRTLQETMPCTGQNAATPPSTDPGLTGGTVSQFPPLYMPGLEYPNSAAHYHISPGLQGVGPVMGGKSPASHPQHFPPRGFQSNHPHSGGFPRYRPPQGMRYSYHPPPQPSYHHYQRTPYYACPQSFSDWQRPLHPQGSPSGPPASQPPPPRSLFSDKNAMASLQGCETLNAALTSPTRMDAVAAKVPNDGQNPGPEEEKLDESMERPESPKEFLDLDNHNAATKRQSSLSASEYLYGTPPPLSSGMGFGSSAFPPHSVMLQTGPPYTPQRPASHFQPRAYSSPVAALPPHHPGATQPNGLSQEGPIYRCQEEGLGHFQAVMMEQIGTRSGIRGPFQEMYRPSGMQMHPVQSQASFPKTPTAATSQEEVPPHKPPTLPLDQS

[8] = molecular target: Bromodomain testis-specific protein (Homo sapiens) (UniProt Q58F21); conditions: Compound concentration 10.0 uM, Protein concentration 2.0 uM
[9] = molecular target: Transcription intermediary factor 1-beta (Homo sapiens) (UniProt Q13263); conditions: Compound concentration 10.0 uM, Protein concentration 2.0 uM
[10] = molecular target: Protein polybromo-1 (Homo sapiens) (UniProt Q86U86); conditions: Compound concentration 10.0 uM, Protein concentration 2.0 uM
Protein polybromo-1 (Homo sapiens), sequence (Q86U86 whole entry): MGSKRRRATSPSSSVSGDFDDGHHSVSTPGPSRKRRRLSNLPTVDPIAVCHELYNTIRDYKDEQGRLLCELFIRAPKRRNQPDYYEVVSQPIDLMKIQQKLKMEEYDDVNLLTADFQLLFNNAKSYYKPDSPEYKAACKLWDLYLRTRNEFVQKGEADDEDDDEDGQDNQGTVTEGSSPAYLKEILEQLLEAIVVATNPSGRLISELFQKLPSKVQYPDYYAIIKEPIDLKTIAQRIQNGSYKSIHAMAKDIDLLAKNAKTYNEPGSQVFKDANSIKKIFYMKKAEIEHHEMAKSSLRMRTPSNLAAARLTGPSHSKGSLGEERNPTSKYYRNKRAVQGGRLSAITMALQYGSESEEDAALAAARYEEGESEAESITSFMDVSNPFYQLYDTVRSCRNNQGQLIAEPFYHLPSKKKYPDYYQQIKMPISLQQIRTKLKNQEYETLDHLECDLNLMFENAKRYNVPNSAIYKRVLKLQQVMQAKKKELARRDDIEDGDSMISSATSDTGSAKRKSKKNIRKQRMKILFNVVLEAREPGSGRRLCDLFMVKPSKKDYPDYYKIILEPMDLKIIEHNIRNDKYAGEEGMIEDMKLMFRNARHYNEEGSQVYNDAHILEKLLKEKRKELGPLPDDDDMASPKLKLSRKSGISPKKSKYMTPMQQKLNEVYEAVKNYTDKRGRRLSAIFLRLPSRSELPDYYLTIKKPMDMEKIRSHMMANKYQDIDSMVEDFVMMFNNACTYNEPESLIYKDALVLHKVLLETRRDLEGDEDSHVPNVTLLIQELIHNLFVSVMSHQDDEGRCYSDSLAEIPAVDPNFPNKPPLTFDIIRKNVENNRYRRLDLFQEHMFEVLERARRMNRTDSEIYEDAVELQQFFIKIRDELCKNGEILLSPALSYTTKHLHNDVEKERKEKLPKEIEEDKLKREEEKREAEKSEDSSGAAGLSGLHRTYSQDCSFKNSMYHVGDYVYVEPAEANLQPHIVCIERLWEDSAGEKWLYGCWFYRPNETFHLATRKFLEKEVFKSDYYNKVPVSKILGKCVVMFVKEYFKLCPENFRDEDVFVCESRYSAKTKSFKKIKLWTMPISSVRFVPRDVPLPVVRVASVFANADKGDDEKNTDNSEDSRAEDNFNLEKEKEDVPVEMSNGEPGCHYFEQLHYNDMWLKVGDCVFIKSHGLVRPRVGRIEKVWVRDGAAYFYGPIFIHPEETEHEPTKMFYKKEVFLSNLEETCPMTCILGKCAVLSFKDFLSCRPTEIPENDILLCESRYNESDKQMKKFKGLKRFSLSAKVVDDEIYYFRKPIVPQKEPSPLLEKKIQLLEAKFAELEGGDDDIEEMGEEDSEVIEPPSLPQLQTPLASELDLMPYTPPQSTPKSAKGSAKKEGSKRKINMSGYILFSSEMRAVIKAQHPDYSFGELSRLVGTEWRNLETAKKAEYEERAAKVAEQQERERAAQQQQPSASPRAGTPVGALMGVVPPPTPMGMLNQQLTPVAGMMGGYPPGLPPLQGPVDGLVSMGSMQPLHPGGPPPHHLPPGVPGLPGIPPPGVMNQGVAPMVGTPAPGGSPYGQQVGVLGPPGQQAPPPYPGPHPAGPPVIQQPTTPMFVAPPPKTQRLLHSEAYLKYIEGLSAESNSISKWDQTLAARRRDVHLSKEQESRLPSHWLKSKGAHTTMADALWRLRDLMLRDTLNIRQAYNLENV

[11] = molecular target: Bromodomain and PHD finger-containing protein 3 (Homo sapiens) (UniProt Q9ULD4); conditions: Compound concentration 10.0 uM, Protein concentration 2.0 uM
[12] = molecular target: Transcription initiation factor TFIID subunit 1-like (Homo sapiens) (UniProt Q8IZX4); conditions: Compound concentration 10.0 uM, Protein concentration 2.0 uM
[13] = molecular target: Bromodomain and WD repeat-containing protein 1 (Homo sapiens) (UniProt Q9NSI6); conditions: Compound concentration 10.0 uM, Protein concentration 2.0 uM
[14] = molecular target: Protein polybromo-1 (Homo sapiens) (UniProt Q86U86); conditions: Compound concentration 10.0 uM, Protein concentration 2.0 uM; remark: listed apart in the source
[15] = molecular target: Histone-lysine N-methyltransferase ASH1L (Homo sapiens) (UniProt Q9NR48); conditions: Compound concentration 10.0 uM, Protein concentration 2.0 uM
[16] = molecular target: Bromodomain-containing protein 1 (Homo sapiens) (UniProt O95696); conditions: Compound concentration 10.0 uM, Protein concentration 2.0 uM
[17] = molecular target: Transcription initiation factor TFIID subunit 1 (Homo sapiens) (UniProt P21675); conditions: Compound concentration 10.0 uM, Protein concentration 2.0 uM
[18] = molecular target: Nuclear body protein SP140-like protein (Homo sapiens) (UniProt Q9H930); conditions: Compound concentration 10.0 uM, Protein concentration 2.0 uM
Nuclear body protein SP140-like protein (Homo sapiens), sequence (Q9H930 whole entry): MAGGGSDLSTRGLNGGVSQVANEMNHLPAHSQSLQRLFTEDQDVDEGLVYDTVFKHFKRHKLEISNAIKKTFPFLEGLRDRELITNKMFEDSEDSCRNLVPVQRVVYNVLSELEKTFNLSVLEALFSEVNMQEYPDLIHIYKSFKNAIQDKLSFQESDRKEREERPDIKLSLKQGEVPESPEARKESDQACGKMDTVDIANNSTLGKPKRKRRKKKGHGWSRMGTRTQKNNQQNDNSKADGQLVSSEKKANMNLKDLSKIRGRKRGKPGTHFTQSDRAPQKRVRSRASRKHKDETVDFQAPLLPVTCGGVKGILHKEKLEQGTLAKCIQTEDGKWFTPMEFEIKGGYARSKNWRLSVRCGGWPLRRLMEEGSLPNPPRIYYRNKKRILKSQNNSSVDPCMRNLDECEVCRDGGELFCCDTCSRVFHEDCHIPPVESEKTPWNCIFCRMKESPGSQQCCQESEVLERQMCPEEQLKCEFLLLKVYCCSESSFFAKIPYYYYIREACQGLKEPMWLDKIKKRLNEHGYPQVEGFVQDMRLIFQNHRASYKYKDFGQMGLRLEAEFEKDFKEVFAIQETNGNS

[19] = molecular target: Transcription intermediary factor 1-alpha (Homo sapiens) (UniProt O15164); conditions: Compound concentration 10.0 uM, Protein concentration 2.0 uM
[20] = molecular target: ATPase family AAA domain-containing protein 2B (Homo sapiens) (UniProt Q9ULI0); conditions: Compound concentration 10.0 uM, Protein concentration 2.0 uM
[21] = molecular target: Protein polybromo-1 (Homo sapiens) (UniProt Q86U86); conditions: Compound concentration 10.0 uM, Protein concentration 2.0 uM; remark: listed apart in the source
[22] = molecular target: Histone acetyltransferase p300 (Homo sapiens) (UniProt Q09472); conditions: Compound concentration 10.0 uM, Protein concentration 2.0 uM
[23] = molecular target: Nuclear body protein SP140 (Homo sapiens) (UniProt Q13342); conditions: Compound concentration 10.0 uM, Protein concentration 2.0 uM
[24] = molecular target: Histone-lysine N-methyltransferase 2A (Homo sapiens) (UniProt Q03164); conditions: Compound concentration 10.0 uM, Protein concentration 2.0 uM
[25] = molecular target: Bromodomain-containing protein 2 (Homo sapiens) (UniProt P25440); conditions: Compound concentration 10.0 uM, Protein concentration 2.0 uM
[26] = molecular target: SWI/SNF-related matrix-associated actin-dependent regulator of chromatin subfamily A member 2 (Homo sapiens) (UniProt P51531); conditions: Compound concentration 10.0 uM, Protein concentration 2.0 uM
[27] = molecular target: Bromodomain adjacent to zinc finger domain protein 2A (Homo sapiens) (UniProt Q9UIF9); conditions: Compound concentration 10.0 uM, Protein concentration 2.0 uM
[28] = molecular target: Bromodomain-containing protein 3 (Homo sapiens) (UniProt Q15059); conditions: Compound concentration 10.0 uM, Protein concentration 2.0 uM; remark: listed apart in the source
Peregrin (Homo sapiens) [29] = molecular target: T1, Peregrin (Homo sapiens) (UniProt P55201); assay: Alphascreen assay. Domain start/stop: M626-G740; conditions: Protein concentration 50.0 uM
T1 sequence (whole entry): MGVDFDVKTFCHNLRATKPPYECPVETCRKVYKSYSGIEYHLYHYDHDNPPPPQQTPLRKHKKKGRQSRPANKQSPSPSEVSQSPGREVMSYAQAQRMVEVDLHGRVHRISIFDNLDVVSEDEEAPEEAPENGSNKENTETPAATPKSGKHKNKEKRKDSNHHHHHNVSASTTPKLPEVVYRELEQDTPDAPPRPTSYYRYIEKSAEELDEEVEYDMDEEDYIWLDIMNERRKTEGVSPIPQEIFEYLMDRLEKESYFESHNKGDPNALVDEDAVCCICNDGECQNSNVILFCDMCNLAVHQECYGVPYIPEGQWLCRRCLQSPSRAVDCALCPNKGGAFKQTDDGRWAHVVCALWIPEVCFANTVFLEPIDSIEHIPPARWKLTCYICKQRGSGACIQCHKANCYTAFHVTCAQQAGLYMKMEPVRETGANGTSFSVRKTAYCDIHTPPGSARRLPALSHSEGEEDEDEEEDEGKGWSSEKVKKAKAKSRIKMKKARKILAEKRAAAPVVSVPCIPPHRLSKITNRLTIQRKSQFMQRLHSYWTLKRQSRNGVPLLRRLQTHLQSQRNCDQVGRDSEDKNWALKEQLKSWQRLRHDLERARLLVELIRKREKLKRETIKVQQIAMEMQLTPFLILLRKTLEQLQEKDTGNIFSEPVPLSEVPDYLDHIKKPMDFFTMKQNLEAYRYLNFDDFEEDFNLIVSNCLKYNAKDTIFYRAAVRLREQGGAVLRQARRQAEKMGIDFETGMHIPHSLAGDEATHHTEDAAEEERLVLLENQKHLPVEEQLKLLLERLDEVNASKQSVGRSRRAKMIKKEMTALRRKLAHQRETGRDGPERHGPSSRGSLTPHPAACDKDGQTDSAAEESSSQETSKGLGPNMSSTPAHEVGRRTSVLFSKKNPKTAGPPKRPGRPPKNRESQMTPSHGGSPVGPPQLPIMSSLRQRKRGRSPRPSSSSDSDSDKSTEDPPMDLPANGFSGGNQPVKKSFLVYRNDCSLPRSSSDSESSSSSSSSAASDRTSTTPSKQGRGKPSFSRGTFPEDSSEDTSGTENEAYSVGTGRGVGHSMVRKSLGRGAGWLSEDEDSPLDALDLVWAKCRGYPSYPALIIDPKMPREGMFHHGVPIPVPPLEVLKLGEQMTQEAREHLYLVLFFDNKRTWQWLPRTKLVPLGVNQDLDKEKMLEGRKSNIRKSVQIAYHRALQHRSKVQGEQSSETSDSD

[30] = molecular target: SWI/SNF-related matrix-associated actin-dependent regulator of chromatin subfamily A member 4 (Homo sapiens) (UniProt P51532); conditions: Compound concentration 10.0 uM, Protein concentration 2.0 uM
[31] = molecular target: Bromodomain-containing protein 7 (Homo sapiens) (UniProt Q9NPI1); conditions: Compound concentration 10.0 uM, Protein concentration 2.0 uM
Bromodomain-containing protein 7 (Homo sapiens), sequence (Q9NPI1 whole entry): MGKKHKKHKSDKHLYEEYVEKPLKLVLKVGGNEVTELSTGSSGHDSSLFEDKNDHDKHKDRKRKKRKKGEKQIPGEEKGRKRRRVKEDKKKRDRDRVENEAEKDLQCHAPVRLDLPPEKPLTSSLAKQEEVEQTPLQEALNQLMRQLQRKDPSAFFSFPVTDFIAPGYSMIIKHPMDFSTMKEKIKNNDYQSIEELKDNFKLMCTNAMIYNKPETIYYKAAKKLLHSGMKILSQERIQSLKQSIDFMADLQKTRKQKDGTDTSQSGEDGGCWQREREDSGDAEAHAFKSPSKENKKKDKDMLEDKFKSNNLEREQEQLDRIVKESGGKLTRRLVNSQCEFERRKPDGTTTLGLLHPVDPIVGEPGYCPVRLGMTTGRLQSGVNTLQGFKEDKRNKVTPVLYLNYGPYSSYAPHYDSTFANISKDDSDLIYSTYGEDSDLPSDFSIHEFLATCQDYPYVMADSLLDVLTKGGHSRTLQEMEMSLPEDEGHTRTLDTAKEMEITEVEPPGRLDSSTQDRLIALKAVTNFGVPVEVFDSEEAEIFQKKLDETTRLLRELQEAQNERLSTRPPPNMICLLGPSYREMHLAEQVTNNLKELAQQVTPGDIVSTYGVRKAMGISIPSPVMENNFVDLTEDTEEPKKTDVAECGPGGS

[32] = molecular target: PH-interacting protein (Homo sapiens) (UniProt Q8WWQ0); conditions: Compound concentration 50.0 uM, Protein concentration 0.025 uM
[33] = molecular target: Chromatin remodeling regulator CECR2 (Homo sapiens) (UniProt Q9BXF3); conditions: Compound concentration 10.0 uM, Protein concentration 2.0 uM
[34] = molecular target: Histone acetyltransferase KAT2B (Homo sapiens) (UniProt Q92831); conditions: Compound concentration 10.0 uM, Protein concentration 2.0 uM
[35] = molecular target: Bromodomain-containing protein 2 (Homo sapiens) (UniProt P25440); conditions: Compound concentration 10.0 uM, Protein concentration 2.0 uM; remark: listed apart in the source
[36] = molecular target: Bromodomain and WD repeat-containing protein 3 (Homo sapiens) (UniProt Q6RI45); conditions: Compound concentration 10.0 uM, Protein concentration 2.0 uM
[37] = molecular target: E3 ubiquitin-protein ligase TRIM33 (Homo sapiens) (UniProt Q9UPN9); assay: Thermal Shift Assay. Domain start/stop: D882-P1073; conditions: Compound concentration 10.0 uM, Protein concentration 2.0 uM
Peregrin (Homo sapiens) [38] = molecular target: T1, Peregrin (Homo sapiens); conditions: Compound concentration 10.0 uM, Protein concentration 2.0 uM
[39] = molecular target: Protein polybromo-1 (Homo sapiens) (UniProt Q86U86); conditions: Compound concentration 10.0 uM, Protein concentration 2.0 uM; remark: listed apart in the source
[40] = molecular target: Bromodomain testis-specific protein (Homo sapiens) (UniProt Q58F21); conditions: Compound concentration 10.0 uM, Protein concentration 2.0 uM; remark: listed apart in the source
[41] = molecular target: PH-interacting protein (Homo sapiens) (UniProt Q8WWQ0); conditions: Compound concentration 10.0 uM, Protein concentration 2.0 uM
[42] = molecular target: ATPase family AAA domain-containing protein 2 (Homo sapiens) (UniProt Q6PL18); conditions: Compound concentration 10.0 uM, Protein concentration 2.0 uM
[43] = molecular target: Bromodomain-containing protein 4 (Homo sapiens) (UniProt O60885); conditions: Compound concentration 10.0 uM, Protein concentration 2.0 uM
[44] = molecular target: Protein polybromo-1 (Homo sapiens) (UniProt Q86U86); conditions: Compound concentration 10.0 uM, Protein concentration 2.0 uM; remark: listed apart in the source
[45] = molecular target: CREB-binding protein (Homo sapiens) (UniProt Q92793); conditions: Compound concentration 10.0 uM, Protein concentration 2.0 uM
[46] = molecular target: Transcription initiation factor TFIID subunit 1-like (Homo sapiens) (UniProt Q8IZX4); conditions: Compound concentration 10.0 uM, Protein concentration 2.0 uM; remark: listed apart in the source
[47] = molecular target: Tyrosine-protein kinase BAZ1B (Homo sapiens) (UniProt Q9UIG0); conditions: Compound concentration 10.0 uM, Protein concentration 2.0 uM
[48] = molecular target: Histone acetyltransferase KAT2A (Homo sapiens) (UniProt Q92830); conditions: Compound concentration 10.0 uM, Protein concentration 2.0 uM
[49] = molecular target: Nucleosome-remodeling factor subunit BPTF (Homo sapiens) (UniProt Q12830)
Description: Alphascreen assay. Domain start/stop: S2791-H2911

[50] = molecular target: Protein polybromo-1 (Homo sapiens) (UniProt Q86U86); conditions: Compound concentration 10.0 uM, Protein concentration 2.0 uM; remark: listed apart in the source
Peregrin (Homo sapiens) [51] = molecular target: T1, Peregrin (Homo sapiens); conditions: Compound concentration 10.0 uM, Protein concentration 2.0 uM; remark: listed apart in the source
[52] = molecular target: Bromodomain-containing protein 9 (Homo sapiens) (UniProt Q9H8M2); conditions: Compound concentration 10.0 uM, Protein concentration 2.0 uM
[53] = molecular target: Transcription initiation factor TFIID subunit 1 (Homo sapiens) (UniProt P21675); conditions: Compound concentration 10.0 uM, Protein concentration 2.0 uM; remark: listed apart in the source
[54] = molecular target: Chromatin remodeling regulator CECR2 (Homo sapiens) (UniProt Q9BXF3); conditions: Compound concentration 10.0 uM, Protein concentration 2.0 uM; remark: listed apart in the source

Cc1cc(=O)n(C)c2cc(N3C(=O)CC[C@@H](NS(=O)(=O)CC(C)C)[C@@H]3c3ccc(Cl)cc3)ccc12
ΔTm [1]: -0.09 °C | ΔTm [2]: 1.82 °C | inhibition [3]: 4.77% | ΔTm [4]: -0.02 °C | inhibition [5]: 95.6% | ΔTm [6]: 0.15 °C | inhibition [7]: 10.7% | ΔTm [8]: 0.06 °C | ΔTm [9]: 0.2 °C | ΔTm [10]: 0.16 °C | ΔTm [11]: -0.05 °C | ΔTm [12]: 0.27 °C | ΔTm [13]: -0.43 °C | ΔTm [14]: -0.12 °C | ΔTm [15]: 0.17 °C | ΔTm [16]: 0.01 °C | ΔTm [17]: 1.22 °C | ΔTm [18]: 0.96 °C | ΔTm [19]: -0.09 °C | ΔTm [20]: 0.35 °C | ΔTm [21]: 0.14 °C | ΔTm [22]: 0.03 °C | ΔTm [23]: 0.44 °C | ΔTm [24]: 0.6 °C | ΔTm [25]: 0.38 °C | ΔTm [26]: 0.44 °C | ΔTm [27]: -0.38 °C | ΔTm [28]: -0.26 °C | inhibition (Peregrin (Homo sapiens) [29]; Compound concentration 1.25 uM): 1.84% | inhibition (Peregrin (Homo sapiens) [29]; Compound concentration 4.0 uM): 3.88% | ΔTm [30]: 0.16 °C | ΔTm [31]: 10.1 °C and 10.7 °C | inhibition [32]: 1.4% and 14.2% | ΔTm [33]: 0.69 °C | ΔTm [34]: 0.09 °C | ΔTm [35]: -0.14 °C | ΔTm [36]: 0.82 °C | ΔTm [37]: 0.14 °C | ΔTm (Peregrin (Homo sapiens) [38]): -0.09 °C and 0.15 °C | ΔTm [39]: 0.15 °C and 0.13 °C | ΔTm [40]: 0.17 °C | ΔTm [41]: -0.48 °C | ΔTm [42]: 0.02 °C | ΔTm [43]: -0.08 °C | ΔTm [44]: 0.01 °C | ΔTm [45]: 0.17 °C and -0.28 °C | ΔTm [46]: 0.24 °C | ΔTm [47]: -0.45 °C | ΔTm [48]: -0.21 °C | inhibition ([49]; Compound concentration 0.25 uM, Protein concentration 19.0 uM): 3.67% | inhibition ([49]; Compound concentration 0.25 uM, Protein concentration 20.0 uM): 7.02% | inhibition ([49]; Compound concentration 4.0 uM, Protein concentration 19.0 uM): 7.64% | ΔTm [50]: 0.76 °C | ΔTm (Peregrin (Homo sapiens) [51]): -0.19 °C | ΔTm [52]: 5.28 °C and 8.25 °C and 6.82 °C | ΔTm [53]: 0.33 °C | ΔTm [54]: 0.17 °C
